Reference: US8993574B2, “Pyrrole antifungal agents” (F2G Ltd, priority 2008, dated 2015)
Values after ≈ are worked out from the molar mass of the structure shown.

Legend:
Type in all cases: cell-based
Aspergillus flavus [1] = test: MIC, RPMI medium; conditions: MIC banded into grades; for MIC: Aspergillus flavus, read-out: MIC grade, A. flavus
Protocol: (§1) Between 1 and 5 mgs of compound were accurately weighed out into a sterile Eppendorf tube. The compound was dissolved in DMSO to give a solution containing 5 mg/mL. Tubes were stored at −20° C. until required.
(§2) On the day of testing thawed solutions were vortex mixed to ensure homogeneity. 30 μL of solution was removed and added to 570 μL of sterile water in a separate sterile Eppendorf. The thoroughly mixed solution was used to prepare a series of doubling dilutions in water, in a deep well plate. Thirteen replicate plates were prepared using a Minitrak by aspirating 20 μL from each well into eleven clear polystyrene 96 well plates.
(§3) Assays were also performed in RPMI medium for both Aspergillus spp. (strains described above) and Candida spp. (Candida albicans, Candida glabrata, Candida krusei, Candida parapsilosis and Candida tropicalis). To perform MIC tests in this medium, dilutions of compounds are prepared in microtitre plates as described above. Fungal strains to be tested are grown and harvested in an identical manner to that described above, and each organism suspension was diluted in RPMI medium, containing 2% glucose and 0.135 M MOPS buffer (pH 7.0) to 0.5-2×10^4 cfu/mL, rather than in YAG medium. 80 μL of an organism suspension was added to each well of the plate containing drug dilutions.
(§4) This produced MIC plates with a drug range 50-0.05 mg/L and organism inocula of 1−2×10^4 cfu/mL. All plates were incubated for 24-48 h at 35° C. Growth was assessed by monitoring the optical density at 485 nm for each well. The MIC of a compound is the lowest drug concentration that inhibits growth of an organism by >80% compared with a drug free control.
(§5) The following organisms were tested: Aspergillus flavus, Aspergillus fumigatus AF293 and AF210, Aspergillus niger, Aspergillus terreus AT4 and AT49, Candida albicans, Candida glabrata, Candida krusei, Candida parapsilosis and Candida tropicalis.

Aspergillus niger [2] = test: MIC, RPMI medium; conditions: MIC banded into grades; for MIC: Aspergillus niger, read-out: MIC grade, A. niger
Protocol: as §1, §2, §3, §4, §5

[3] = test system: Aspergillus fumigatus AF293; test: MIC, RPMI medium; conditions: for MIC: Aspergillus fumigatus, AF293, MIC banded into grades, read-out: MIC grade, A. fumigatus
Protocol: as §1, §2, §3, §4, §5

[4] = test system: Aspergillus fumigatus AF210; test: MIC, RPMI medium; conditions: for MIC: Aspergillus fumigatus, AF210, MIC banded into grades, read-out: MIC grade, A. fumigatus 210
Protocol: as §1, §2, §3, §4, §5

Aspergillus terreus AT4 [5] = test: MIC, RPMI medium; conditions: for MIC: Aspergillus terreus, AT4, MIC banded into grades, read-out: MIC grade, A. terreus
Protocol: as §1, §2, §3, §4, §5

Aspergillus terreus AT49 [6] = test: MIC, RPMI medium; conditions: for MIC: Aspergillus terreus, AT49, MIC banded into grades, read-out: MIC grade, A. terreus 49
Protocol: as §1, §2, §3, §4, §5

Aspergillus flavus [7] = test: MIC, YAG medium; conditions: 24 h at 35° C, MIC banded into grades; for MIC: Aspergillus flavus, 24 h, read-out: MIC grade, A. flavus
Protocol: as §1, §2
(§6) Spores of Aspergillus spp. (Aspergillus fumigatus [two strains], Aspergillus terreus [two strains], Aspergillus niger and Aspergillus flavus) were harvested from cultures grown on Sabarauds agar for 5 days, and resuspended in PBS/Tween 80 to approx 1×10^7 cfu/mL. Each organism suspension was diluted in YAG medium (1% glucose, 1% ammonium chloride and 0.5% yeast extract) to 0.5−2×10^4 cfu/mL. 80 μL of an organism suspension was added to each well of the plate containing drug dilutions.
as §4, with “cfu/mL for Aspergillus spp.” for “cfu/mL.”, “24” for “24-48”, “>70%” for “>80%”, “control. MICs are recorded as mg/L. In cases where the MIC of an organism is […] mg/L the MIC is repeated using a concentration range of 0.5-0.0005 mg/L.” for “control.”
as §5

Aspergillus niger [8] = test: MIC, YAG medium; conditions: 24 h at 35° C, MIC banded into grades; for MIC: Aspergillus niger, read-out: MIC grade, A. niger
Protocol: as §1, §2, §6
as §4, with “cfu/mL for Aspergillus spp.” for “cfu/mL.”, “24” for “24-48”, “>70%” for “>80%”, “control. MICs are recorded as mg/L. In cases where the MIC of an organism is […] mg/L the MIC is repeated using a concentration range of 0.5-0.0005 mg/L.” for “control.”
as §5

[9] = test system: Aspergillus fumigatus AF293; test: MIC, YAG medium; conditions: 24 h at 35° C, MIC banded into grades; for MIC: Aspergillus fumigatus, read-out: MIC grade, A. fumigatus
Protocol: as §1, §2, §6
as §4, with “cfu/mL for Aspergillus spp.” for “cfu/mL.”, “24” for “24-48”, “>70%” for “>80%”, “control. MICs are recorded as mg/L. In cases where the MIC of an organism is […] mg/L the MIC is repeated using a concentration range of 0.5-0.0005 mg/L.” for “control.”
as §5

[10] = test system: Aspergillus fumigatus AF210; test: MIC, YAG medium; conditions: 24 h at 35° C, MIC banded into grades; for MIC: Aspergillus fumigatus, read-out: MIC grade, A. fumigatus 210
Protocol: as §1, §2, §6
as §4, with “cfu/mL for Aspergillus spp.” for “cfu/mL.”, “24” for “24-48”, “>70%” for “>80%”, “control. MICs are recorded as mg/L. In cases where the MIC of an organism is […] mg/L the MIC is repeated using a concentration range of 0.5-0.0005 mg/L.” for “control.”
as §5

Aspergillus terreus AT4 [11] = test: MIC, YAG medium; conditions: 24 h at 35° C, MIC banded into grades; for MIC: Aspergillus terreus, read-out: MIC grade, A. terreus
Protocol: as §1, §2, §6
as §4, with “cfu/mL for Aspergillus spp.” for “cfu/mL.”, “24” for “24-48”, “>70%” for “>80%”, “control. MICs are recorded as mg/L. In cases where the MIC of an organism is […] mg/L the MIC is repeated using a concentration range of 0.5-0.0005 mg/L.” for “control.”
as §5

Aspergillus terreus AT49 [12] = test: MIC, YAG medium; conditions: 24 h at 35° C, MIC banded into grades; for MIC: Aspergillus terreus, read-out: MIC grade, A. terreus 49
Protocol: as §1, §2, §6
as §4, with “cfu/mL for Aspergillus spp.” for “cfu/mL.”, “24” for “24-48”, “>70%” for “>80%”, “control. MICs are recorded as mg/L. In cases where the MIC of an organism is […] mg/L the MIC is repeated using a concentration range of 0.5-0.0005 mg/L.” for “control.”
as §5

Row | MIC (Aspergillus flavus [1]) [µg/mL] | MIC (Aspergillus niger [2]) [µg/mL] | MIC [3] [µg/mL] | MIC [4] [µg/mL] | MIC (Aspergillus terreus AT4 [5]) [µg/mL] | MIC (Aspergillus terreus AT49 [6]) [µg/mL] | MIC (Aspergillus flavus [7]) [µg/mL] | MIC (Aspergillus niger [8]) [µg/mL] | MIC [9] [µg/mL] | MIC [10] [µg/mL] | MIC (Aspergillus terreus AT4 [11]) [µg/mL] | MIC (Aspergillus terreus AT49 [12]) [µg/mL] | SMILES | other results
1 |  |  |  |  |  |  |  |  |  |  |  |  | COCCn1c(C)cc(-c2ccccc2)c1C(=O)C(=O)Nc1ccc(N2CCCCC2)c(F)c1 [Example 119, N-(3-Fluoro-4-piperdin-1-yl-phenyl)-2-[1-(2-methoxy-ethyl)-5-methyl-3-phenyl-1H-pyrrol-2-yl]-2-oxo-acetamide] | MIC grade, A. flavus (Aspergillus flavus [1]): 2 (A grade of 2 represents an MIC of from 1 to 10 mg/L); MIC grade, A. niger (Aspergillus niger [2]): 3 (A grade of 3 represents an MIC of less than 1 mg/L); MIC grade, A. fumigatus ([3]; MIC banded into grades): 3 (A grade of 3 represents an MIC of less than 1 mg/L); MIC grade, A. fumigatus 210 ([4]; MIC banded into grades): 3 (A grade of 3 represents an MIC of less than 1 mg/L); MIC grade, A. terreus (Aspergillus terreus AT4 [5]; MIC banded into grades): 3 (A grade of 3 represents an MIC of less than 1 mg/L); MIC grade, A. terreus 49 (Aspergillus terreus AT49 [6]; MIC banded into grades): 2 (A grade of 2 represents an MIC of from 1 to 10 mg/L); MIC grade, A. flavus (Aspergillus flavus [7]): 2 (A grade of 2 represents an MIC of from 1 to 10 mg/L); MIC grade, A. niger (Aspergillus niger [8]): 3 (A grade of 3 represents an MIC of less than 1 mg/L); MIC grade, A. fumigatus [9]: 3 (A grade of 3 represents an MIC of less than 1 mg/L); MIC grade, A. fumigatus 210 [10]: 3 (A grade of 3 represents an MIC of less than 1 mg/L); MIC grade, A. terreus (Aspergillus terreus AT4 [11]): 3 (A grade of 3 represents an MIC of less than 1 mg/L); MIC grade, A. terreus 49 (Aspergillus terreus AT49 [12]): 3 (A grade of 3 represents an MIC of less than 1 mg/L)
2 | > 10 | > 10 | > 10 | > 10 | > 10 | > 10 | > 10 | > 10 | > 10 | > 10 | > 10 | > 10 | Cc1cc(C)nc(N2CCN(c3ccc(NC(=O)C(=O)c4c(-c5ccccc5)ccn4CC(N)=O)cc3)CC2)c1 [Example 75, 2-(1-Carbamoylmethyl-3-phenyl-1H-pyrrol-2-yl)-N-{4-[4-(4,6-dimethyl-pyridin-2-yl)-piperazin-1-yl]-phenyl}-2-oxo-acetamide] | 
3 | < 1 | < 1 | < 1 | < 1 | < 1 | < 1 | < 1 | < 1 | < 1 | < 1 | < 1 | < 1 | Cc1cc(-c2ccccc2)c(C(=O)C(=O)Nc2ccc(-c3ncco3)cc2)n1C [Example 147, 2-(1,5-Dimethyl-3-phenyl-1H-pyrrol-2-yl)-N-(4-oxazol-2-yl-phenyl)-2-oxo-acetamide] | 
4 | > 10 | > 10 | > 10 | > 10 | > 10 | > 10 | 1 to 10 (≈ 1.75 to 17.5 µM) | > 10 | 1 to 10 (≈ 1.75 to 17.5 µM) | 1 to 10 (≈ 1.75 to 17.5 µM) | 1 to 10 (≈ 1.75 to 17.5 µM) | 1 to 10 (≈ 1.75 to 17.5 µM) | COCCn1cc(-c2ccccc2Cl)cc1C(=O)C(=O)Nc1ccc(N2CCN(c3cc(C)cc(C)n3)CC2)cc1 [Example 58, 2-[4-(2-Chloro-phenyl)-1-(2-methoxy-ethyl)-1H-pyrrol-2-yl]-N-{4-[4-(4,6-dimethyl-pyridin-2-yl)-piperazin-1-yl]-phenyl}-2-oxo-acetamide] | 
